Source: PubChem BioAssay (NCI)
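Test compounds were applied to cells in 96-well plates for 48 hours at 5 doses. At the GI50, growth is halved. TGI marks complete inhibition of growth.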

Tests used:
Experiment in all cases: growth of human tumour cells (NCI), 48 h
[1] = system: SW-620 colon
[2] = system: K-562 leukemia
[3] = system: SN12C renal
[4] = system: NCI-H23 lung
[5] = system: RPMI-8226 leukemia
[6] = system: RXF 393 renal
[7] = system: COLO 205 colon
[8] = system: SK-MEL-2 melanoma
[9] = system: MOLT-4 leukemia
[10] = system: OVCAR-8 ovarian
[11] = system: ACHN renal
[12] = system: SR leukemia
[13] = system: SNB-19 CNS
[14] = system: MDA-MB-231 breast
[15] = system: SF-539 CNS
[16] = system: LOX IMVI melanoma
[17] = system: SF-295 CNS
[18] = system: NCI-H522 lung
[19] = system: U251 CNS
[20] = system: HCC-2998 colon
[21] = system: PC-3 prostate
[22] = system: MDA-MB-435
[23] = system: A498 renal
[24] = system: OVCAR-4 ovarian
[25] = system: M14 melanoma
[26] = system: OVCAR-3 ovarian
[27] = system: BT-549 breast
[28] = system: DU-145 prostate
[29] = system: UO-31 renal
[30] = system: NCI-H460 lung
[31] = system: HCT-15 colon
[32] = system: A549 NSCLC
[33] = system: SK-MEL-28 melanoma
[34] = system: HCT-116 colon
[35] = system: HS 578T breast
[36] = system: TK-10 renal
[37] = system: SF-268 CNS
[38] = system: HOP-92 NSCLC
[39] = system: KM12 colon
[40] = system: MDA-MB-468 breast
[41] = system: MALME-3M melanoma
[42] = system: IGROV1 ovarian
[43] = system: SK-OV-3 ovarian
[44] = system: HL-60(TB) leukemia
[45] = system: SK-MEL-5 melanoma
[46] = system: CAKI-1 renal
[47] = system: CCRF-CEM leukemia
[48] = system: UACC-62 melanoma
[49] = system: OVCAR-5 ovarian
[50] = system: HT29 colon
[51] = system: EKVX NSCLC
[52] = system: NCI-H226 lung
[53] = system: HOP-62 NSCLC
[54] = system: UACC-257 melanoma
[55] = system: 786-0 renal
[56] = system: MCF7 breast

## Cc1ccc2nc(COc3ccc(C(=O)NNC(=O)Nc4ccc(Cl)c(C(F)(F)F)c4)cc3)[nH]c2c1
[1]
  GI50: 10.7 µM
  TGI: 36.9 µM
[2]
  GI50: 6.1 µM
  TGI: > 100 µM
[3]
  GI50: 10.3 µM
  TGI: 50 µM
[4]
  GI50: 10.8 µM
  TGI: 29.7 µM
[5]
  GI50: 49.8 µM
  TGI: > 100 µM
[6]
  GI50: 6.32 µM
  TGI: 22 µM
[7]
  GI50: 21.7 µM
  TGI: 71.8 µM
[8]
  GI50: 15.9 µM
  TGI: 44.7 µM
[9]
  GI50: 21.6 µM
  TGI: > 100 µM
[10]
  GI50: 5.54 µM
  TGI: 47.9 µM
[11]
  GI50: 27.4 µM
  TGI: > 100 µM
[12]
  GI50: 8.46 µM
  TGI: > 100 µM
[13]
  GI50: 5.59 µM
  TGI: 19.9 µM
[14]
  GI50: 6.31 µM
  TGI: 26 µM
[15]
  GI50: 4 µM
  TGI: 20.1 µM
[16]
  GI50: 4.04 µM
  TGI: 18.7 µM
[17]
  GI50: 12.3 µM
  TGI: 25.9 µM
[18]
  GI50: 13.8 µM
  TGI: 39.7 µM
[19]
  GI50: 4.13 µM
  TGI: 17.9 µM
[20]
  GI50: 28.8 µM
  TGI: > 100 µM
[21]
  GI50: 6.71 µM
  TGI: 36.2 µM
[22]
  GI50: 5.08 µM
  TGI: 36.5 µM
[23]
  GI50: 75.9 µM
  TGI: > 100 µM
[24]
  GI50: 18 µM
  TGI: 66.8 µM
[25]
  GI50: 8.45 µM
  TGI: > 100 µM
[26]
  GI50: 24.2 µM
  TGI: > 100 µM
[27]
  GI50: 13 µM
  TGI: 88.1 µM
[28]
  GI50: 30.4 µM
  TGI: > 100 µM
[29]
  GI50: > 100 µM
  TGI: > 100 µM
[30]
  GI50: 7.24 µM
  TGI: 23.4 µM
[31]
  GI50: 49.1 µM
  TGI: > 100 µM
[32]
  GI50: 7.96 µM
  TGI: 71.1 µM
[33]
  GI50: 2.94 µM
  TGI: 9.25 µM
[34]
  GI50: 45.1 µM
  TGI: > 100 µM
[35]
  GI50: 2.98 µM
  TGI: 53.9 µM
[36]
  GI50: 49.4 µM
  TGI: > 100 µM
[37]
  GI50: 6.57 µM
  TGI: > 100 µM
[38]
  GI50: 5.38 µM
  TGI: 24 µM
[39]
  GI50: 29.5 µM
  TGI: > 100 µM
[40]
  GI50: 2.77 µM
  TGI: 7.77 µM
[41]
  GI50: 2.06 µM
  TGI: 5.06 µM
[42]
  GI50: 9.96 µM
  TGI: 27.2 µM
[43]
  GI50: 21.2 µM
  TGI: 54.1 µM
[44]
  GI50: > 100 µM
  TGI: > 100 µM
[45]
  GI50: 11.8 µM
  TGI: 28.4 µM
[46]
  GI50: 21 µM
  TGI: 64.2 µM
[47]
  GI50: 51.2 µM
  TGI: > 100 µM
[48]
  GI50: 5.31 µM
  TGI: 19.8 µM
[49]
  GI50: 26.6 µM
  TGI: > 100 µM
[50]
  GI50: 19.5 µM
  TGI: 84.9 µM
[51]
  GI50: 41.8 µM
  TGI: > 100 µM
[52]
  GI50: 12.2 µM
  TGI: 39.7 µM
[53]
  GI50: 5.68 µM
  TGI: 21.6 µM
[54]
  GI50: 5.11 µM
  TGI: 58 µM
[55]
  GI50: 14.6 µM
  TGI: 41.6 µM
[56]
  GI50: 3.61 µM
  TGI: 17.2 µM
